Laboratory results as given in patent US20110250135A1, “Piperazine Derivatives for Binding and Imaging Amyloid Plaques and Their Use” (Bayer Schering Pharma Aktiengesellschaft, priority 2008, published 2011).

What was measured:
[1] = Biodistribution: organ distribution of F-18 signal in mice; assay type: in vivo, male NMRI mice; conditions: for Organ distribution of F-18 signal, intestine: intestine (with content); for Organ distribution of F-18 signal, stomach: stomach (without content)
Description: Biodistribution and excretion studies were performed in male NMRI mice (body weight app. 30g; 3 animals per time point). The animals were kept under normal laboratory conditions at a temperature of 22±2° C. and a dark/light rhythm of 12 hours. Food and water were provided ad libitium. During an acclimation period of at least 3 days before the beginning of the study animals were clinically examined to ascertain the absence of abnormal clinical signs. At 2, 5, 30, 60, 240 min post intravenous injection via the tail vein of ca. 150 kBq in 100 μl of the test compound, urine and feces were quantitatively collected. At the same time points, animals were sacrificed by decapitation and under isoflurane anaesthesia and the following organs and tissues were removed for the determination of radioactivity using a gamma-counter: spleen, liver, kidney, lung, femur, heart, brain, fat, thyroid, muscle, skin, blood, tail, stomach (without content), testicle, intestine (with content), pancreas, adrenals, and the remaining body. For analysis the decay corrected percentage of the injected dose per tissue weight (% ID/g±standard deviation) was calculated.

Aβ plaques = biological target: T1, Aβ plaques (Homo sapiens, UniProt P05067); assay: Autoradiographical analysis of binding to cryosections from cortex of AD patients and controls; conditions: F-18 labeled compound; Alzheimer's disease patients (AD) vs controls without Aβ plaques
T1 construct: controls without Aβ plaques; from tissue; host or cells: frontal lobe / cortex sections (frozen and paraffin) from AD patients, FTD patients and age-matched controls
T1 sequence (P05067 672-713 limits assumed): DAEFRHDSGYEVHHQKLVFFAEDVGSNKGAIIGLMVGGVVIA
Excerpt: Fresh frozen as well as paraffin embedded sections of the frontal lobe from Alzheimer's dementia patients, frontotemporal dementia patients and age matched controls were used for the study. Frozen sections, sliced at 18 μm thickness on a cryostate (Leica, Germany) and paraffin sections, sliced on a sliding microtom (Leica) at a thickness of 6 μm, were mounted onto glass slides (Superfrost Plus, Fa.Menzel, Braunschweig Germany). Frozen sections were allowed to adhere to the slides for several nights at −20° C. The paraffin sections were deparaffinized using routine histological methods. For binding studies sections were incubated with the F-18 labeled test compound at 10 Bq/μl diluted in 25 mM Hepes buffer, pH 7.4, 0.1% (BSA) (200-300 μl/slide) for 1.5 hour at room temperature in a humidified chamber. For blocking experiments a 1000-fold access of the unlabeled test substance was added to the incubation mixture. After hybridization, sections were washed four times with Hepes buffer, 0.1% BSA (or alternatively two times with 40% ethanol) and finally dipped two times into dest. water for 10 sec. The air-dried sections were exposed to imaging plates and signals were detected by a phosphoimager device (Fuji BAS5000).

## O=C(NCC(=O)N1CCN(c2ccc(OCc3ccccc3)cc2)CC1)c1ccc([18F])nc1 [Example 10e, N-{2-[4-(4-Benzyloxy-phenyl)-piperazin-1-yl]-2-oxoethyl}-6-[F-18]-fluoro-nicotinamide]
[1]; 2 min post i.v. injection
  Organ distribution of F-18 signal, adrenals: 7.86 % ID/g
  Organ distribution of F-18 signal, blood: 2.01 % ID/g
  Organ distribution of F-18 signal, brain: 4.99 % ID/g
  Organ distribution of F-18 signal, fat: 1.79 % ID/g
  Organ distribution of F-18 signal, femur: 1.44 % ID/g
  Organ distribution of F-18 signal, heart: 5.18 % ID/g
  Organ distribution of F-18 signal, intestine: 2.13 % ID/g
  Organ distribution of F-18 signal, kidney: 8.58 % ID/g
  Organ distribution of F-18 signal, liver: 7.44 % ID/g
  Organ distribution of F-18 signal, lung: 4.31 % ID/g
  Organ distribution of F-18 signal, muscle: 2.40 % ID/g
  Organ distribution of F-18 signal, pancreas: 4.59 % ID/g
  Organ distribution of F-18 signal, skin: 1.37 % ID/g
  Organ distribution of F-18 signal, spleen: 1.96 % ID/g
  Organ distribution of F-18 signal, stomach: 3.69 % ID/g
  Organ distribution of F-18 signal, tail: 8.65 % ID/g
  Organ distribution of F-18 signal, testicle: 1.53 % ID/g
  Organ distribution of F-18 signal, thyroid: 2.51 % ID/g
[1]; 5 min post i.v. injection
  Organ distribution of F-18 signal, adrenals: 6.20 % ID/g
  Organ distribution of F-18 signal, blood: 1.98 % ID/g
  Organ distribution of F-18 signal, brain: 4.33 % ID/g
  Organ distribution of F-18 signal, fat: 2.66 % ID/g
  Organ distribution of F-18 signal, femur: 1.53 % ID/g
  Organ distribution of F-18 signal, heart: 4.49 % ID/g
  Organ distribution of F-18 signal, intestine: 2.40 % ID/g
  Organ distribution of F-18 signal, kidney: 7.92 % ID/g
  Organ distribution of F-18 signal, liver: 12.02 % ID/g
  Organ distribution of F-18 signal, lung: 3.86 % ID/g
  Organ distribution of F-18 signal, muscle: 2.07 % ID/g
  Organ distribution of F-18 signal, pancreas: 4.54 % ID/g
  Organ distribution of F-18 signal, skin: 1.76 % ID/g
  Organ distribution of F-18 signal, spleen: 1.99 % ID/g
  Organ distribution of F-18 signal, stomach: 2.84 % ID/g
  Organ distribution of F-18 signal, tail: 6.65 % ID/g
  Organ distribution of F-18 signal, testicle: 1.81 % ID/g
  Organ distribution of F-18 signal, thyroid: 2.62 % ID/g
[1]; 30 min post i.v. injection
  Organ distribution of F-18 signal, adrenals: 2.36 % ID/g
  Organ distribution of F-18 signal, blood: 1.38 % ID/g
  Organ distribution of F-18 signal, brain: 1.44 % ID/g
  Organ distribution of F-18 signal, fat: 1.95 % ID/g
  Organ distribution of F-18 signal, femur: 1.15 % ID/g
  Organ distribution of F-18 signal, heart: 1.85 % ID/g
  Organ distribution of F-18 signal, intestine: 8.20 % ID/g
  Organ distribution of F-18 signal, kidney: 6.29 % ID/g
  Organ distribution of F-18 signal, liver: 9.60 % ID/g
  Organ distribution of F-18 signal, lung: 1.93 % ID/g
  Organ distribution of F-18 signal, muscle: 1.16 % ID/g
  Organ distribution of F-18 signal, pancreas: 2.27 % ID/g
  Organ distribution of F-18 signal, skin: 1.39 % ID/g
  Organ distribution of F-18 signal, spleen: 1.08 % ID/g
  Organ distribution of F-18 signal, stomach: 2.40 % ID/g
  Organ distribution of F-18 signal, tail: 1.86 % ID/g
  Organ distribution of F-18 signal, testicle: 1.28 % ID/g
  Organ distribution of F-18 signal, thyroid: 1.26 % ID/g
[1]; 60 min post i.v. injection
  Organ distribution of F-18 signal, adrenals: 0.67 % ID/g
  Organ distribution of F-18 signal, blood: 0.55 % ID/g
  Organ distribution of F-18 signal, brain: 0.44 % ID/g
  Organ distribution of F-18 signal, fat: 0.67 % ID/g
  Organ distribution of F-18 signal, femur: 1.43 % ID/g
  Organ distribution of F-18 signal, heart: 0.69 % ID/g
  Organ distribution of F-18 signal, intestine: 10.63 % ID/g
  Organ distribution of F-18 signal, kidney: 2.61 % ID/g
  Organ distribution of F-18 signal, liver: 5.27 % ID/g
  Organ distribution of F-18 signal, lung: 0.89 % ID/g
  Organ distribution of F-18 signal, muscle: 0.34 % ID/g
  Organ distribution of F-18 signal, pancreas: 0.92 % ID/g
  Organ distribution of F-18 signal, skin: 0.51 % ID/g
  Organ distribution of F-18 signal, spleen: 0.35 % ID/g
  Organ distribution of F-18 signal, stomach: 1.09 % ID/g
  Organ distribution of F-18 signal, tail: 1.00 % ID/g
  Organ distribution of F-18 signal, testicle: 0.52 % ID/g
  Organ distribution of F-18 signal, thyroid: 0.56 % ID/g
[1]; 240 min post i.v. injection
  Organ distribution of F-18 signal, adrenals: 0.43 % ID/g
  Organ distribution of F-18 signal, blood: 0.09 % ID/g
  Organ distribution of F-18 signal, brain: 0.04 % ID/g
  Organ distribution of F-18 signal, fat: 0.15 % ID/g
  Organ distribution of F-18 signal, femur: 1.75 % ID/g
  Organ distribution of F-18 signal, heart: 0.11 % ID/g
  Organ distribution of F-18 signal, intestine: 6.90 % ID/g
  Organ distribution of F-18 signal, kidney: 0.50 % ID/g
  Organ distribution of F-18 signal, liver: 2.29 % ID/g
  Organ distribution of F-18 signal, lung: 0.10 % ID/g
  Organ distribution of F-18 signal, muscle: 0.06 % ID/g
  Organ distribution of F-18 signal, pancreas: 1.07 % ID/g
  Organ distribution of F-18 signal, skin: 0.08 % ID/g
  Organ distribution of F-18 signal, spleen: 0.06 % ID/g
  Organ distribution of F-18 signal, stomach: 0.50 % ID/g
  Organ distribution of F-18 signal, tail: 0.69 % ID/g
  Organ distribution of F-18 signal, testicle: 0.06 % ID/g
  Organ distribution of F-18 signal, thyroid: 0.35 % ID/g
Aβ plaques
  autoradiographical analysis of binding to cryosections from cortex: Specific binding in plaque-rich regions of AD samples
